Experimental data reported in publication PMC9595134, “Novel pituitary actions of GnRH in teleost: The link between reproduction and feeding regulation” (Frontiers in Endocrinology, 2022).

Assays:
[1] = test system: grass carp pituitary cells; experiment: Signal transduction: pathway inhibitors on GnRH-regulated reproductive gene mRNA; format: cell-based, grass carp (Ctenopharyngodon idellus); settings: U73122 10 μM, GF109203X 20 μM, 2-APB 100 μM, MDL12330A 20 μM, H89 20 μM, nifedipine 10 μM, calmidazolium 1 μM, KN62 5 μM; for blockade of GnRH2-induced GtHα, LHβ, FSHβ, INHBa, and SgII mRNA expression: cotreated with GnRH2, 24 h; for blockade of GnRH3-induced GtHα, LHβ, FSHβ, INHBa, and SgII mRNA expression: cotreated with GnRH3, 24 h
Description: (§1) The preparation of grass carp pituitary cells was performed as mentioned above. After drug treatment, the total RNA of these cells was isolated by TRIzol reagent and reverse transcribed into cDNA with Hifair™ III 1st Strand cDNA Synthesis Kit. The transcript levels of several anorectic peptides (POMCb, CART2, UTS1, NMBa, NMBb, and Lepr) and reproductive genes (GtHα, LHβ, FSHβ, INHBa, SgII, DRD2) were detected by using an ABI 7500 quantitative real-time PCR (qRT-PCR) system (Biosystems, USA) (information of primers for target genes is listed in Supplementary Table S3 ). In this process, a serial gradient dilution of plasmid DNA of these genes was used as a standard for data calibration. The conditions of qRT-PCR were set to 10 min, 95°C, for pre-degeneration; 15 s, 95°C, for degeneration; 30 s, 55°C–60°C, for annealing; 30 s, 72°C, for extending; and 20 s, 82°C, for signal detection with 40 cycles. Finally, the melt curve obtained through each test was used to verify and check the reliability and specificity of the corresponding qRT-PCR.
(§2) In this experiment, GnRH2 (A) or GnRH3 (B) combined with/without the PLC inhibitor U73122 (10 μM), PKC inhibitor GF109203X (20 μM), or IP3 receptor blocker 2-APB (100 μM) was used to incubate the grass carp pituitary cells for 24 (h) After drug treatment, the total RNA was extracted from the cells for real-time PCR of the respective genes. Data presented are expressed as mean ± SEM, and the different letters represent a significant difference at p < 0.05 between groups (ANOVA followed by a Dunnett test).
as §2, with “AC” for “PLC”, “MDL12330A (20 μM) or PKA” for “U73122 (10 μM), PKC”, “H89” for “GF109203X”, “(20” for “(20 μM), or IP3 receptor blocker 2-APB (100”
Data presented are expressed as mean ± SEM, and the different letters represent a significant difference at p < 0.05 between groups (ANOVA followed by a Dunnett test).

[2] = test system: grass carp pituitary cells; experiment: Signal transduction: pathway inhibitors on GnRH-induced anorectic gene mRNA; format: cell-based, grass carp (Ctenopharyngodon idellus); settings: U73122 10 μM, GF109203X 20 μM, 2-APB 100 μM, MDL12330A 20 μM, H89 20 μM, nifedipine 10 μM, calmidazolium 1 μM, KN62 5 μM; for blockade of GnRH2-induced POMCb, CART2, UTS1, NMBa, NMBb, and LEPR mRNA expression: cotreated with GnRH2, 24 h; for blockade of GnRH3-induced POMCb, CART2, UTS1, NMBa, NMBb, and LEPR mRNA expression: cotreated with GnRH3, 24 h
Description: as §1
To explore the signal transduction for GnRH-induced target gene mRNA expression, the method mentioned above was performed.
as §2, with “Figure 10 Signal transduction for GnRH2- and GnRH3-induced POMCb, CART2, UTS1, NMBa, NMBb, and LEPR mRNA expression in grass carp pituitary cells. In” for “In”
as §2, with “Figure 11 Signal transduction for GnRH2- and GnRH3-induced POMCb, CART2, UTS1, NMBa, NMBb, and LEPR mRNA expression in grass carp pituitary cells. In” for “In”, “AC” for “PLC”, “MDL12330A (20 μM) or PKA” for “U73122 (10 μM), PKC”, “H89” for “GF109203X”, “(20” for “(20 μM), or IP3 receptor blocker 2-APB (100”
Figure 12 Signal transduction for GnRH2- and GnRH3-induced POMCb, CART2, UTS1, NMBa, NMBb, and LEPR mRNA expression in grass carp pituitary cells. […] Data presented are expressed as mean ± SEM, and the differences between groups were significant at p < 0.05 by labelling diverse letters (ANOVA followed by a Dunnett test).

grass carp pituitary = settings: ref [15]; cited from earlier work
Excerpt: As we know, energy metabolism was associated with reproductive behavior in vertebrates ([11]), and adequate energy reserve was essential for breeding ([12]).

DRD2 = settings: teleost; ref [37]; cited from earlier work

Molecule | blockade of GnRH2-induced GtHα, LHβ, FSHβ, INHBa, and SgII mRNA expression [1] | blockade of GnRH3-induced GtHα, LHβ, FSHβ, INHBa, and SgII mRNA expression [1] | blockade of GnRH2-induced POMCb, CART2, UTS1, NMBa, NMBb, and LEPR mRNA expression [2] | blockade of GnRH3-induced POMCb, CART2, UTS1, NMBa, NMBb, and LEPR mRNA expression [2] | effect on LH secretion and synthesis (grass carp pituitary) | effect on LH synthesis via activation of DRD2 (DRD2)
Cl.c1ccc(C2CCCC2NC2=NCCCCCCCCCCC2)cc1 (centres unmarked) [MDL12330A] | could also be blocked | could also be blocked | could block | could block | – | –
COc1ccc2c(c1)CC[C@@H]1[C@@H]2CC[C@]2(C)[C@@H](NCCCCCCN3C(=O)C=CC3=O)CC[C@@H]12 [U73122] | could block | could block | could block | could block | – | –
Clc1ccc(C(c2ccc(Cl)cc2)n2cc[n+](CC(OCc3ccc(Cl)cc3Cl)c3ccc(Cl)cc3Cl)c2)cc1 (centres unmarked) [calmidazolium] | could also block | could also block | could block | could block | – | –
COC(=O)C1=C(C)NC(C)=C(C(=O)OC)C1c1ccccc1[N+](=O)[O-] [nifedipine] | – | – | could block | could block | – | –
prolactin-releasing peptide [PRRP] | – | – | – | – | significantly induce | –
O=S(=O)(NCCNC/C=C/c1ccc(Br)cc1)c1cccc2cnccc12 [H89] | could also be blocked | could also be blocked | could block | could block | – | –
CN(C)CCCn1cc(C2=C(c3c[nH]c4ccccc34)C(=O)NC2=O)c2ccccc21 [GF109203X] | could block | could block | could block | could block | – | –
NCCc1ccc(O)c(O)c1 [dopamine] | – | – | – | – | – | inhibited
CN([C@@H](Cc1ccc(OS(=O)(=O)c2cccc3cnccc23)cc1)C(=O)N1CCN(c2ccccc2)CC1)S(=O)(=O)c1cccc2cnccc12 [KN62] | could also block | could also block | could block | could block | – | –
NCCOB(c1ccccc1)c1ccccc1 [2-APB] | could block | could block | could block | could block | – | –
